Measurements reported in US7691582B2, “Methods of secretory vimentin detection and modulation” (The Regents of the University of Michigan, priority 2002, dated 2010).
“Also recorded” adds a separate entry of the source.

What was measured:
Format in all cases: cell-based, human
[1] = system: secretion of vimentin from MDM; test: Vimentin secretion by MDM, Western blot of supernatants; conditions: for vimentin secretion (vimentin in the supernatant): MDM treated 2 h with inhibitor (GÖ 6983 250 nM; SB 203580 100 μM), FIGS. 3c, 4a, 4b; for secretion of vimentin from the mature MDM: eleven day MDM, 40% human serum, monensin 2 or 4 μg ml−1 or tunicamycin 4 μg ml−1, 12 h, FIG. 2h
Experimental: Monocyte-derived macrophages (MDMs) were prepared as previously described^40. Briefly, heparinized venous blood was collected upon consent from healthy volunteers, and peripheral blood mononuclear cells (PBMC) were separated by Ficoll-Hypaque (Pharmacia Biotech AB, Uppsala, Sweden) density gradient centrifugation. MDM were purified by adherence to plastic for 2 hat […] at a concentration of 5×10^5 ml^−1. Adherent cells were consistently >90% monocytes as described^40. Adherence-purified human monocytes were cultured in X-vivo medium supplemented with 40% human AB serum (Bio-Whittaker, Walkersville, Md.) and 100 units of penicillin and 50 units of streptomycin per ml^12.
(§1) Cells were maintained for 12-48 h in serum-free medium. When applicable, during the incubation in serum-free media cells were treated for 12 h with 10-500 ng ml^−1 IL-10, 0.5-5 ng ml^−1 TNF-α, 4 μg ml^−1 tunicamycin, E-64 [100 µM] (Sigma), or 2 or 4 μg ml^−1 monensin (Pharmingen). Alternatively, cells were treated for 2 h with GÖ 6983 [250 nM], SB 203580 [100 μM], or OA [100 nM] (Calbiochem) followed by 12 h incubation in serum-free media or treatment with TNF-α. The viability of the cells up to 48 h was almost 100% as measured by MTT assay (Boehringer Mannheim, Indianapolis, Ind.) and LDH release as previously described^12. Supernatants were collected and centrifuged for 20 min at 1500 RPM to remove cell debris and concentrated by a centrifugal filter device (Millipore) in the presence of a protease inhibitor cocktail (Boehringer Mannheim, Indianapolis, Ind.) and were either used immediately or stored at −70° C. Cells were washed and lysed with 1 ml lysis buffer (50 mM Tris pH 7.5, 150 mM NaCl, 1% NP-40 0.1% SDS, 0.5% Na-Deoxycholate and complete EDTA-free protease inhibitor cocktail) was added to the cells and allowed to incubate on ice for 15 min. The lysate was centrifuged at 10,000 rpm for 20 min at 4° C., the supernatant recovered, and the protein extract was either used immediately or stored at −70° C. Equal amounts of protein (20 μg) were loaded under reducing conditions and separated by 10% SDS PAGE. The gel was transferred to nitrocellulose and immunoblotted with mouse monoclonal anti-vimentin antibody V9 (Research Genetics, Inc), goat anti-vimentin antibody (Chemicon International, Calif.) or goat anti-actin (Santa-Cruz Biotechnology, Inc) followed by a horseradish peroxidase-conjugated appropriate secondary antibody. Chemiluminescent signal was detected using the Super Signal West Pico system (Pierce Chemical Co, Rockford, Ill.).

[2] = system: phosphorylated vimentin in MDM; test: Immunoprecipitation with anti-phospho-(Ser/Thr) antibody, vimentin detected by V9; conditions: 7 day MDM in 10% serum; okadaic acid 100 nM or GÖ 6983 250 nM, 2 h; FIG. 4d
[3] = system: vimentin in 12 day MDM; test: In vivo phosphorylation of vimentin, [32P] orthophosphate incorporation in 12 day MDM; conditions: GÖ 6983 250 nM or OA 100 nM during [32P] labeling, Western blot of same membrane, FIG. 4e
Experimental: 12 day MDM (1.5×10^6) were rinsed three times with phosphate-free RPMI medium (Gibco-BRL, Grand Island, N.Y.). Cells were incubated in 5 ml of phosphate-free RPMI media and allowed to equilibrate at 37 ° C. in a 6 well plate for 2 h. The media was replaced with 1 ml/well of phosphate-free RPMI media with 10% dialysed human serum and 0.166 mCi of [^32P] orthophosphoric acid (Amersham Pharmacia Biotech) for 6 h of incubation. In addition to the control, some wells were treated with GÖ 6983 [250 nM] or OA [100 nM]. Following treatment, medium was removed and replaced by serum free medium for 18 h. Supernatant and cells were prepared for immunoprecipitation as described above (Metabolic Labeling section). Phosphorylated vimentin protein was immunoprecipitated as above, and the samples were separated by 10% SDS-PAGE electrophoresis under reducing conditions. Proteins were transferred to nitrocellulose and subjected to autoradiography for 4 h then immunoblotted with mouse monoclonal anti-vimentin antibody (Research Genetics, Inc.), stripped and re-probed with goat polyclonal anti-vimentin antibody (Chemicon International, Calif.), followed by horseradish peroxidase-conjugated goat anti-mouse or rabbit anti-goat secondary antibodies. Chemiluminescent signal was detected using the Super Signal West Pico system (Pierce Chemical Co, Rockford, Ill.).

[4] = system: secretion of vimentin from MDM; test: Vimentin secretion by MDM, Western blot of supernatants
[5] = system: vimentin proteolysis in MDM; test: Vimentin proteolytic products in MDM, Western blot with V9; conditions: MDM treated with E-64 [100 µM], 12 h; FIG. 3e
Experimental: as §1, with “The lysate was centrifuged at 10,000 rpm for 20 min at 4° C., the supernatant recovered, and the protein extract was either used immediately or stored at −70° C. Equal amounts of protein (20 μg) were loaded under reducing conditions and separated by 10% SDS PAGE. The gel was transferred to nitrocellulose and immunoblotted with mouse monoclonal anti-vimentin antibody V9 (Research Genetics, Inc), goat anti-vimentin antibody (Chemicon International, Calif.) or goat anti-actin (Santa-Cruz Biotechnology, Inc) followed by a horseradish peroxidase-conjugated appropriate secondary antibody.” left out

With `C=C1[C@@H](O)[C@@H]2O[C@]3(CC[C@H](/C=C/[C@@H](C)[C@@H]4CC(C)=C[C@@]5(O[C@H](C[C@@](C)(O)C(=O)O)CC[C@H]5O)O4)O3)CC[C@H]2O[C@@H]1[C@@H](O)C[C@H](C)[C@H]1O[C@@]2(CCCCO2)CC[C@H]1C` [OA, okadaic acid] the extracellular vimentin levels ([1]; 10 day MDM in 40% serum, okadaic acid 100 nM, 2 h, FIG. 4a) was “led to an increase in extracellular vimentin levels”, the “amount of phosphorylated vimentin in cells (cytoplasm) and supernatant” value [2] was “increase in phosphorylated vimentin in the supernatants but not in the cells” and the “secretion of vimentin (62 kD and 52 kD forms)” value [3] was “preferentially enhances secretion of the 52 kD form”. The “increase in vimentin secretion” value ([4]; 7 day MDM in 10% serum, okadaic acid 100 nM, 2 h, FIG. 4b) was over 10 fold.

`C[S+]([O-])c1ccc(-c2nc(-c3ccncc3)c(-c3ccc(F)cc3)[nH]2)cc1` (stereo not shown) [SB203580] was tested, and the “vimentin secretion (vimentin in the supernatant)” value [1] was “did not block secretion”.

With tunicamycin the “secretion of vimentin from the mature MDM” value [1] was “eliminate secretion of vimentin”.

In the case of `CC(C)C[C@H](NC(=O)[C@H]1O[C@@H]1C(=O)O)C(=O)NCCCCN=C(N)N` [E-64], the “vimentin proteolytic products, intracellularly and in the supernatant” value [5] is reported as “marked decrease”.

`CC[C@@]1([C@@H]2O[C@@H]([C@H]3O[C@@](O)(CO)[C@H](C)C[C@@H]3C)C[C@@H]2C)CC[C@H]([C@]2(C)CC[C@]3(C[C@H](O)[C@@H](C)[C@@H]([C@@H](C)[C@@H](OC)[C@H](C)C(=O)O)O3)O2)O1` [Monensin, monensin] was tested, and the “secretion of vimentin from the mature MDM” value [1] was “eliminate secretion of vimentin”.

For TNF-α, the “induction of secretion of vimentin” value ([4]; 1 day human monocytes in 10% human serum, TNF-α 0.5, 1 or 5 ng ml−1, 12 h, densitometry, FIGS. 5b, 5c) was “up to 120 fold”.

With `COc1ccc2c(c1)c(C1=C(c3c[nH]c4ccccc34)C(=O)NC1=O)cn2CCCN(C)C` [GÖ6983] the “secretion of vimentin in the presence of TNF-α” value ([1]; 40% serum treated MDM, GÖ6983 followed by TNF-α) was “not blocked”, the “vimentin secretion (vimentin in the supernatant)” value [1] was “almost completely blocked; also recorded: significantly blocked” and the “amount of actin detected in the supernatants” value ([1]; eleven day MDM with or without GÖ6983, FIG. 3c) was “does not modify the amount of actin”. The “amount of phosphorylated vimentin in cells (cytoplasm) and supernatant” value [2] was “markedly decreased the amount of phosphorylated vimentin in the cytoplasm as well as in the supernatant”, the “secretion of vimentin (62 kD and 52 kD forms)” value [3] was “eliminated essentially all the secretion of vimentin” and the OA-enhanced vimentin secretion ([4]; 7 day MDM in 10% serum, preincubated with GÖ 6983 250 nM 2 h prior to OA 100 nM, FIG. 4b) was “partially decreased”.

B1: IL-10: anti-inflammatory cytokine, a potent inhibitor of activated macrophages (protein, UniProt P22301 19-178, looked up)
Interleukin-10: SPGQGTQSENSCTHFPGNLPNMLRDLRDAFSRVKTFFQMKDQLDNLLLKESLLEDFKGYLGCQALSEMIQFYLEEVMPQAENQDPDIKAHVNSLGENLKTLRLRLRRCHRFLPCENKSKAVEQVKNAFNKLQEKGIYKAMSEFDIFINYIEAYMTMKIRN
In the case of B1, the secretion of vimentin ([1]; MDM in 40% human serum, IL-10 10, 50 or 500 ng ml−1, 12 h, FIG. 5a) is reported as “markedly decreased the secretion of vimentin”.
